Assay results reported in patent publication US8617563B2, “Antichlamydial agents” (Duke University, priority 2011, dated 2013).
Entries after “also recorded” stand apart in the source; their conditions may differ. Where no end group is shown, it is not given here.

Tests used:
C. trachomatis LGV-L2 = assay: Generation of infectious particles (IFU) and inclusion growth in infected HeLa cells; format: cell-based
Experimental: FIG. 9 depicts (A) CPAF inhibitory peptides block the generation of Chlamydia infectious particles. L2-infected HeLa cells were treated at 12 hpi with increasing concentration of peptides. EBs were harvested at 30 hpi and inclusion-forming units (IFU) were quantified on fresh cell monolayers. (B-D) CPAF activity is required to maintain inclusion integrity. The integrity of the inclusion was determined by assessing the immunolocalization of the inclusion membrane marker IncA (red) and Chlamydia (green) (B) and by transmission electron microscopy (C). […] (D) The percentage of vimentin-positive inclusions was determined by IF in infected cells treated with SEQ ID NO:7 and SEQ ID NO:11 (12 hpi) peptides at 24 hpi. (E) Activation of inflammatory cytokines upon inhibition of CPAF activity. Levels of IL-8 supernatants from Chlamydia infected cells treated with peptides as in (B-D) were determined at 24 hpi by ELISA.
Cells were infected with an MOI of 1 and treated with CPAF inhibitor (SEQ ID NO:7) or control (SEQ ID NO:11) peptides at 12 hpi, fixed at 24 hpi and analyzed by IF with anti-L2 polyclonal antisera. Inclusion size was determined by measuring the inclusion diameter in μm by confocal microscopy of 50 infected cells. The number of cells with fragmented inclusions was determined by counting the number of infected cells out of 50 with more than one inclusion. […]

Caspase-1 = Caspase-1 activity in infected cells (FLICA, flow cytometry); format: cell-based, human; settings: fluorescently labeled caspase-1 substrate
Experimental: FIG. 13 depicts (A) that Caspase-1 inhibitors block Chlamydia-mediated cell death. Infected cells were treated with the Caspase-1 inhibitor Ac-YVAD-CMK at 2 hpi, and increasing concentrations of CPAF inhibitor added at 12 hpi. Cells were fixed and the percentage of cells with condensed nuclei determined at 24 hpi. (B) Enhanced Caspase-1 activation in infected cells lacking CPAF activity. Infected cells were labeled with a cell-permeable fluorescent substrate of Caspase-1 and treated with inhibitory peptides, and Caspase-1 activity was monitored by flow cytometry. (C) Caspase-1 and ASC are required for Chlamydia-mediated host cell death. […] Chlamydia replication and generation of IFUs in MLFs was assessed as in FIG. 9. […]
Subsequent experiments tested whether CPAF inhibition led to the onset of apoptosis in infected cells. […] Apoptotic cells were identified with an AnnexinV-FLOUS Staining Kit (available from Roche) and activation of Caspase-1 was determined by labeling active Caspase-1 with a Carboxyfluorescein FLICA Detection Kit (available from Immunochemistry) and analyzed in a FACScanner (available from BD Biosciences). […] Consistent with result, Caspase-3 cleavage, another characteristic of apoptotic cell death, was not detected (FIG. 11C).

C. caviae CPAF = assay: GST-IncC cleavage by lysate of C. caviae (GPIC) infected cells; format: biochemical; settings: infected whole cell lysate
Experimental: (§1) Cells were infected with an MOI of 1 and treated with CPAF inhibitor (SEQ ID NO:7) or control (SEQ ID NO:11) peptides at 12 hpi, fixed at 24 hpi and analyzed by IF with anti-L2 polyclonal antisera. Inclusion size was determined by measuring the inclusion diameter in μm by confocal microscopy of 50 infected cells. The number of cells with fragmented inclusions was determined by counting the number of infected cells out of 50 with more than one inclusion. (C) Sequence alignment and % sequence identify of full length CPAF and predicted inhibitory peptide sequence between C. trachomatis serovar LGV-L2, Chlamydia muridarum, and Chlamydophila caviae was determined using Geneious software (available at the Geneious website). […] GPIC or C. muridarum infected whole cell protein lysate was preincubated with SEQ ID NO:7 peptide or SEQ ID NO:11 control peptide, mixed with GST-IncC at 37° C., resolved by SDS-PAGE and stained with Coomassie blue. […] Inhibition of C. muridarum (E) and C. ceviae (F) growth was determined by counting the number of recovered IFUs. […] Inclusions were detected by IF with anti-LGV-L2 (A, B, E) antisera or anti-chlamydial LPS (F) monoclonal antibodies, and host nuclei sere detected by staining.

C. muridarum CPAF = assay: GST-IncC cleavage by lysate of C. muridarum infected cells; format: biochemical; settings: infected whole cell lysate
Experimental: as §1

SLFYSPMVPHFWAELRNHYATSGLKRRRRRRRRR-NH2 [SEQ ID NO:7]
Yields of EBs (IFU) (C. trachomatis LGV-L2; L2-infected HeLa, peptide at 12 hpi, EBs harvested 30 hpi): significantly lowered yields of EBs
Inclusion growth (C. trachomatis LGV-L2; MOI 1, peptide at 12 hpi, fixed 24 hpi): stunted inclusion growth
Caspase-1 activity in infected cells (Caspase-1): significantly increased
Inhibition of C. caviae CPAF (C. caviae CPAF): not sensitive to inhibition; also recorded: but not C. ceviae CPAF
Inhibition of substrate cleavage by C. muridarum CPAF (C. muridarum CPAF): prevented cleavage of substrate; also recorded: inhibits C. muridarum CPAF
